The source of these data is patent US9856273B2, “ETP derivatives” (priority 2012, dated 2018).

SMILES strings stand for the structures. Entries after “also recorded” stand apart in the source; their conditions may differ.

What is called IC50 is the concentration needed to halve the response being measured.

The test system of series [1] is A2058 melanoma SQ xenografts. The series is classed as in vivo, mouse. To be noted: A2058 xenograft, 20 mg/kg IP once daily for 13 days. Here is the method: In Vivo Xenograft Procedures for Lung Cancer, Melanoma, and Ovarian Cancer (See FIGS. 15A, 15B, 16A, 16B, 17A, 17B, 18A and 18B): Human A2058 melanoma cells (3×10^6) were resuspended in serum-free RPMI1640 medium and subcutaneously injected into the flank of 5-6 weeks old Athymic female nude mouse (NCI). When palpable tumor sizes reached at approximately 100 mm^3, mice were divided into two groups (vehicle=5, treatment=5). Then, ETP69 was administered with intraperitoneal (IP) injection at 20 mg/kg with vehicle (10% DMSO+0.5% Teen 20+89.5% saline), once daily for 13 days. Tumor volumes were calculated by the formula 1/2a×b^2, where a is the long diameter, and b is the short diameter. Tumor volumes correlate with tumor weights. The statistical significance of group differences was analyzed using a Student's t-test with the two-tailed distribution. P values less than 0.05 were considered statistically significant.

The target in series [2] is G9a (Homo sapiens, UniProt Q96KQ7). The experiment in a line: Histone methyltransferase (HMT) assay in vitro. Type of series: biochemical. Here is the method: (§1) For histone methyltranferase (HMT), DNA methyltransferase (DNMT) and Histone acetyltransferase (HAT) assays in vitro, human recombinant HMT, DNMT and HAT proteins were mixed with substrates in the reaction buffer (50 mM Tris-HCl (pH 8.5), 5 mM MgCl2, 50 mM NaCl, 1 mM DTT, 1 mM PMSF, 1% DMSO), including histone H3, histone H4, nucleosomes, or core histone. Racemic ETP69, S enantiomer or DMSO as a vehicle control was preincubated in the mixture. Next, for HMTs and DNMT assays, […] of ^3H-SAM was added to the mixture for the reaction initiation and conversion of ^3H-SAM+histone L-lysine to SAH+histone N^6-[methyl-^3H]-L-lysine was monitored with miniatured radioligand-filter binding platform. For p300 HAT assays, the conversion of acetyl-^3H-acetyl coenzyme A to coenzyme A was monitored. The reactions were carried out at 30° C. IC50 values were determined using Excel and GraphPad Prism software.

The target in series [3] is SUV39H1 (Homo sapiens, UniProt O43463). The experiment in a line: Histone methyltransferase (HMT) assay in vitro. The series is classed as biochemical. How it is done:
as §1

Series [4] has as its system T315I mutant KCL-22 CML cells. The experiment in a line: MTS cell viability assay. The series is classed as cell-based. To be noted: Homo sapiens. How it is done:
(§2) IC50 Determinations for Ovarian, Liver, Pancreatic, CML, AML Cancer Cell Lines (See e.g. FIGS. 4, 6A-6C, 21, 22A, 22B, 23, 24A-24C, 25A, 25B and 34): MTS assays were performed for cell viability. SKOV3 ovarian cancer, Huh-7 hepatocellular carcinoma, MIA-PaCa2 pancreatic cancer, KCL-22 CML, T315I mutant KCL-22 CML, MOLM-13 AML and MV4-11 AML cells were seeded in 96-well plates (5000 cells/well for solid tumors, 10000 cells/well for blood tumors), incubated overnight at 37° C. in 5% CO2, and exposed to racemic ETP69 or S enantiomer in a dose-dependent manner for 48 h. Dimethyl sulfoxide (DMSO) was used as the vehicle control. Viable cell numbers were determined by tetrazolium conversion to its formazan dye and absorbance was measured at 490 nm using an automated ELISA plate reader. Each experiment was performed in quadruplicate.
(Tetrazolium dyes change colour on reduction, which living cells bring about.)

For series [5], the system named is Huh-7 hepatocellular carcinoma cells. The experiment in a line: MTS cell viability assay. Type of series: cell-based. The note with it: Homo sapiens. How it is done: as §2
Series [6] has as its system MV4-11 AML cells. The experiment in a line: MTS cell viability assay. The series is classed as cell-based. To be noted: Homo sapiens. Here is the method: as §2
The test system of series [7] is KCL-22 CML cells. The experiment in a line: MTS cell viability assay. The series is classed as cell-based. The note with it: Homo sapiens. How it is done: as §2
In series [8] the test system is HepG2 hepatocellular carcinoma cells. Briefly: MTS cell viability assay. Type of series: cell-based. To be noted: Homo sapiens.
The subject of series [9] is p53. Briefly: QPCR of p53 expression in Panc1 cells. To be noted: 100 nM-500 nM. Type of series: cell-based. From the text: QPCR: Total RNA was isolated from cells using the RNeasy kit (Qiagen). The Tetro cDNA kit (Bioline) and SensiFast Probe kit (Bioline) were used to reverse-transcribe and amplify total RNA according to the manufacturer's protocol. The ProbeFinder software (Roche Applied Science) was used to design the primer sets for SUV39H1, p53 and GAPDH and to select the respective probes from the Universal ProbeLibrary (Roche Applied Science). Probe #13 and the following primers were used for the SUV39H1 assay: 5′ […] (SEQ ID NO: 1) and 5′ […] (SEQ ID NO:2). Probe #21 and the following primers were used for the p53 assay: 5′ […] (SEQ ID NO:3) and 5′ […] (SEQ ID NO:4). Probe #60 and the following primers were used for the GAPDH assay: 5′ agccacatcgctcagacac (SEQ ID NO:5) and 5′ gcccaatacgaccaaatcc (SEQ ID NO:6). All samples were run in triplicates. Amplifications were performed on a Bio-Rad CFX96 Touch Multiple-Color Real-time PCR Detection System. The data were normalized to the GAPDH expression and the relative expression levels were calculated using the 2^−ΔΔCt method.

Series [10] concerns p16 tumor suppressor. The experiment in a line: Western blot, induction of p16. Type of series: cell-based, human. The note with it: DU145 prostate cancer cells and A2058 melanoma cells. Here is the method:
Induction of p16, p53, p21waf1 and p27 (FIGS. 8 and 9): Western blot analyses were performed with specific antibodies. Briefly, human A2058 melanoma, DU145 prostate, A549 non-small lung and SKOV3 ovarian cancer cells were treated with ETP69. Whole-cell lysates (40 […]g) were resolved by SDS-PAGE. Primary specific antibodies to p53, p21^WAF1, p27(Kip1), p16 and Actin were diluted in PBS (pH 7.5) with 5% (w/v) nonfat milk and 0.1% (v/v) Tween-20 over night at 4° C. Horseradish peroxidase-conjugated secondary antibodies were incubated in PBS (pH 7.5) with 5% (w/v) nonfat milk and 0.1% (v/v) Tween-20 for 1 h at room temperature. Positive immuno-reactive proteins were detected using the ECL system (Pierce, Rockford, Ill.).

Series [11] relates to MDA-MB-231 triple negative breast cancer cells. The experiment in a line: Cell viability assay. The series is classed as cell-based.
For series [12], the system named is transferases (HMT, HAT, DNMT). The experiment in a line: Screen against a number of transferases. The series is classed as biochemical, human. Here is the method: as §1

Chain of SUV39H1 (O43463 whole entry): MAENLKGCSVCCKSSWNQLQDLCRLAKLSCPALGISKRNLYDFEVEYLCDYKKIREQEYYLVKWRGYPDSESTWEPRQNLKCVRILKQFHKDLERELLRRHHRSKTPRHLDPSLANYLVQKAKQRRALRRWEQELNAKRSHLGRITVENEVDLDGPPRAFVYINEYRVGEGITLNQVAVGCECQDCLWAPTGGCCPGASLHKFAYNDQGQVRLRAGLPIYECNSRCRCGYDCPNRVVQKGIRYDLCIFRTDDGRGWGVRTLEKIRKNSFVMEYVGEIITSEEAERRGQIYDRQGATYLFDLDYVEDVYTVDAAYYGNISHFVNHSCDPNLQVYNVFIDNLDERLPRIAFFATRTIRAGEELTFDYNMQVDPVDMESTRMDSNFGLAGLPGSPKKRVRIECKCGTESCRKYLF
Chain of G9a (Q96KQ7 whole entry): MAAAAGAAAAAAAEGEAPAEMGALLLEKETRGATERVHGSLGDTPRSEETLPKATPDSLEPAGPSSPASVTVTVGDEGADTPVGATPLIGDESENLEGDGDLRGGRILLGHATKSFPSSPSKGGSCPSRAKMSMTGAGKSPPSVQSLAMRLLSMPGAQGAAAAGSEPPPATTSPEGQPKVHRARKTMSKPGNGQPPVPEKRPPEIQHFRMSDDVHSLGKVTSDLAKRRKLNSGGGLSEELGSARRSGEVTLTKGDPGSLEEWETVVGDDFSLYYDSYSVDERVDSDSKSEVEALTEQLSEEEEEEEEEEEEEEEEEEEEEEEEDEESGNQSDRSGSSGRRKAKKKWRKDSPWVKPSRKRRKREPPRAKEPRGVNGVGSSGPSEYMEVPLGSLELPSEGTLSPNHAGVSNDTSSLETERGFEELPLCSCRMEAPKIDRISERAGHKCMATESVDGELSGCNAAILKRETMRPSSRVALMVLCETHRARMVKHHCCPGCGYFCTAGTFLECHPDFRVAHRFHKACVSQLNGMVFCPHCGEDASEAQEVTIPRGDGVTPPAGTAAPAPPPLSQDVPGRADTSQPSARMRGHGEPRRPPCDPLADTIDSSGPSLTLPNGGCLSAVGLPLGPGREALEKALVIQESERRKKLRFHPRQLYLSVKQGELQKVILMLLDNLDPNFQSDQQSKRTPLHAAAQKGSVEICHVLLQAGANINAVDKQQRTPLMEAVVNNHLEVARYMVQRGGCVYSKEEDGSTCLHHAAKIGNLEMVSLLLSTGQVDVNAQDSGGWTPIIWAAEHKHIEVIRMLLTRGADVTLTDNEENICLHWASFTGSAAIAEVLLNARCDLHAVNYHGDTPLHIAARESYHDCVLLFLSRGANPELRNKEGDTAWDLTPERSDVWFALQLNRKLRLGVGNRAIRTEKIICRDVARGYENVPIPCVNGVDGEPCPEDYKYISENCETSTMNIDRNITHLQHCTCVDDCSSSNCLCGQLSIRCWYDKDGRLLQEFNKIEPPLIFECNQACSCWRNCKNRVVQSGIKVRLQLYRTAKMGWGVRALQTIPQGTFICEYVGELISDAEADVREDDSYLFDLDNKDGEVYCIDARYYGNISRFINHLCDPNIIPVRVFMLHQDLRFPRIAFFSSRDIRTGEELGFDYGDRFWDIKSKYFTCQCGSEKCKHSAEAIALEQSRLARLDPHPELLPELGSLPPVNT

For `CN1C(=O)[C@@]23C[C@](C)(C#N)[C@H](c4ccc5c(c4)OCO5)N2C(=O)[C@]1(C)SS3` (racemic) [ETP69, Rac-(3S,6S,7S,8aS)-6-(Benzo[d][1,3]dioxol-5-yl)-2,3,7-trimethyl-1,4-dioxohexahydro-6H-3,8a-epidithiopyrrolo[1,2-a]pyrazine-7-carbonitrile], in series [1], the toxicity symptoms entry was “no observable toxicity symptoms”. The tumor volume result in series [1] is reported as “decreased”. Moreover, the tumor weight entry in [1] is on record as “decreased”. Further, the “inhibition of HMT G9a” value in series [2] is on record as “selectively inhibits; also recorded: specific inhibition”. Further, the “inhibition of HMT SUV39H1” value in [3] was “selectively inhibits; also recorded: specific inhibition”. Further, the IC50 in series [4] came to 170 nM; in series [5] it was 3.3 nM; in [6], 1.8 nM; in [7], 180 nM; in series [8], 13.8 nM. For the same compound, the “up-regulation of p53” value in [9] is reported as not below 3 fold. The “induction of p16 tumor suppressor” value in series [10] is reported as “induces”. Further, the viability inhibition result in [11] is on record as “viability inhibition”. In addition, in series [12], the “potency against several transferases compared with chaetocin” value is “about ten times more potency”. In addition, the “selectivity for histone methyltransferases (SUV39H1; G9a) over histone acetylases (p300) and DNA methyl transferases (DNMT1)” value in series [12] was “selective”.
